Drawing on patent US7923465B2, “Cannabinoid receptor ligands, pharmaceutical compositions containing them, and process for their preparation” (priority 2005, dated 2011), this text covers melting point, inhibition and activation for 14 compounds.

Like-named read-outs stand apart in the source and are kept apart here.

For orientation: melting point means the temperature, or range, at which the solid turns liquid.

The target of one series is hCB2 (Homo sapiens, UniProt P34972). Put plainly: In vitro binding assay using hCB2-CHO membranes, [3H]-CP-55,940 displacement (Protocol IV). More on the design: expressed in transfected cells; host or cells: CHO (hCB2-CHO, generated in-house). Conditions: 1 h; hCB2-CHO membranes, [3H]-CP-55,940 displacement; read-out: % Displacement Protocol IV. The procedure, abridged: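 Displacement of [3H]-CP-55,940 (0.75 nM) from membranes of CHO cells expressing human CB2 (25-50 μg) was measured in Tris-BSA buffer pH 7.4 with 5 mM MgCl2, 1 mM EDTA, 0.1% BSA, 1 h at 30 °C. Test compounds were at 300 nM final; nonspecific binding defined with 0.5 μM CP-55,940. Values are % displacement of specific binding.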
Chain of hCB2 (P34972 whole entry): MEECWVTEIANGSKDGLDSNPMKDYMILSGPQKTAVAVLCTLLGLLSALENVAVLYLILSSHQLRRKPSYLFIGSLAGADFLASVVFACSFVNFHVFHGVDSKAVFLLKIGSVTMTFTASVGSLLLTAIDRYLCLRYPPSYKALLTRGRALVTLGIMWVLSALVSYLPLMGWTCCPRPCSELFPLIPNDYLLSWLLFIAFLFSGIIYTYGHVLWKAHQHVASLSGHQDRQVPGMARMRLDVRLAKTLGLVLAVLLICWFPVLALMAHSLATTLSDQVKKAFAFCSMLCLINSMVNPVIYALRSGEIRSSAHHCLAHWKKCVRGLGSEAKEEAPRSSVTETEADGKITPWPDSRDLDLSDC

Series [1] deals with T1, CB1 (Rattus norvegicus, UniProt P20272). Nature of the series: GTPγS binding assay, CB1 functional assay in rat cerebellar membrane (Protocol VIII). The format is biochemical. More on the design: 10 μg rat cerebellum membrane; from tissue; host or cells: rat cerebellum membrane, prepared in-house. Conditions: for activation at 1 µM / activation at 0.3 µM: 1 h, GTPγS binding over basal, rat cerebellar membrane, read-out: Per Se % Stimulation; for activation at 1 µM: tested at 1 uM; for inhibition at 1 µM / inhibition at 0.3 µM: GTPγS binding, read-out: % Inhibition of WIN-55212-2 induced stimulation; for inhibition at 1 µM: tested at 1 uM in presence of 1 μM WIN 55,212-2; for activation at 0.3 µM: tested at 300 nM; for inhibition at 0.3 µM: tested at 300 nM in presence of 1 μM WIN 55,212-2. Here is the method:
VIII. Protocol for GTPγS Binding Assay (CB1 Functional Assay in Rat Cerebellar Membrane)
In this GTPγS binding assay, total, basal and nonspecific binding were determined. See Griffin G., Atkinson P. J., Showalter V. M., Martin B. R. and Abood M. E., “Evaluation of cannabinoid receptor agonists and antagonists using the Guanosine-5′-O-(3-(^35S)thio)-triphosphate binding assay in rat cerebellar membranes,” J Pharmacol Exp Ther 285: 553-560, 1998. Three wells for total binding, three wells for basal binding, and three wells for nonspecific binding at 0.2 nM concentration of radioligand were used. Basal binding was defined by 50 μM GDP (Guanosine diphosphate) and non-specific binding was defined by 10 μM unlabeled GTPγS. 10 μg rat cerebellum membrane, 50 μM of GDP, WIN-55212-2 or test compound (1 μM or 300 nM), 10 μM unlabeled GTPγs, and 0.2 nM of [^35S]GTPγS were added into a 96 well plate and the final volume of the reaction mixture was made with GTPγS buffer (50 mM Tris, 3 mM anhydrous MgCl2, 0.2 mM EGTA and 100 mM NaCl pH 7.4) to 200 μl. The plates were incubated at 30° C. for 1 hour. Then the reaction was stopped by filtration using a Whatman GF/B-96 microfilter plate. Three washings were given using Tris-HCl. The radioactivity bound to the brain membrane was retained on the filter disks to which scintillation fluid was added (Microscint PS). Then plates were read for radioactive counts using a Beta Liquid Scintillation Counter (Packard Instruments, Ill., USA).
The rat cerebellar brain membrane was prepared as follow: • 1. Sacrifice the rat and take out the whole brain and separate cerebellum as fast as possible and keep it on ice. • 2. Take the weight of the cerebellum and homogenize in 30 ml of homogenizing buffer (50 mM Tris-HCL containing 1 mM EDTA and 5% sucrose, pH 7.5) using homogenizer in cold condition. • 3. Centrifuge the homogenized cerebellum at 18000 rpm (38000 g) for 15 min at 4° C. • 4. Resuspend the pellet in 5 ml 50 mM Tris-HCL containing 1 mM EDTA and keep it on ice for 30 min. • 5. Pass the membrane through insulin syringe to ensure uniform suspension. • 6. Centrifuge the membrane at 18000 rpm at 4° C. for 20 min. • 7. Reconstitute the pellet in 3 ml of GTPγS buffer and estimate the protein by BCA assay and store the membrane in aliquots of 1000 μg of protein. CB1 Agonist and Antagonist Activity Screening Assay
The test compounds were screened at a final concentration of 1 μM or 300 nM in the absence and presence of 1 μM of WIN 55, 212-2 in the same manner as described in the GTPγS binding assay.
An agonist will stimulate the GTPγS binding over the basal.
An inverse agonist will decrease the basal GTPγS binding and/or produce more than 100% inhibition of the agonist (WIN-55212-2) induced stimulation.
The percent stimulation of GTPγS binding by each test compound at 1 μM or 300 nM concentration in the absence and presence of 1 μM WIN 55, 212-2 was calculated by comparing it with basal specific bound (Basal binding—Non Specific binding) values.

In series [2] the target is T1, CB1. Nature of the series: Rat CB1 receptor binding using brain membrane, [3H]SR141716A displacement (Protocol I). Details: CB1 receptor present in a rat brain membrane preparation; from tissue; host or cells: rat brain membrane; inhibition: dose or concentration left out as unconfirmed. Particulars: 1 h.
Where [3] appears, read: rat brain membrane, [3H]SR141716A displacement, read-out: % Displacement Protocol I.
[4] abbreviates: read-out: % Displacement Protocol I, rat brain membrane, [3H]SR141716A displacement.

T1 sequence (P20272 whole entry): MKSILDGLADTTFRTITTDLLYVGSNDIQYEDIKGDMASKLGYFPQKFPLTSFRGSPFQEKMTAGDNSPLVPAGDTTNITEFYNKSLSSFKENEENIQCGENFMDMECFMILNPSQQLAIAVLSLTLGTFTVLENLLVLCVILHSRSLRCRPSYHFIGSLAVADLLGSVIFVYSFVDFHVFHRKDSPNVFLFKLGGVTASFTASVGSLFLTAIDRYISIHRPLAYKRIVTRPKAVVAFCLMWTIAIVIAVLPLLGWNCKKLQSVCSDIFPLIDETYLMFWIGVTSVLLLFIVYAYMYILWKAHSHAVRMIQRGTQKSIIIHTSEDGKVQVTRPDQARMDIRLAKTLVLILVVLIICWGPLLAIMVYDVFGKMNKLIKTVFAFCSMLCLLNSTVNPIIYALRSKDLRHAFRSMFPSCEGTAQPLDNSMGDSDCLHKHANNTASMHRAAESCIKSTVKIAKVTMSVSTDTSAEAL

As to `O=C(NNc1ccc(F)cc1F)c1nn(-c2ccc(Cl)cc2)c2c1C1CC3CC(C1)CC2C3` [Example 132, N(7)-(2,4-Difluorophenylamino]-5-(4-chlorophenyl)-5,6-diazatetracyclo[7.3.1.1^3,11.0^4,8]tetradeca-4(8),6-diene-7-carboxamide], the melting point is 195 to 196 °C. For the same compound, on hCB2, the inhibition at 0.3 µM is 3.94%. Besides, at CB1 [1], the activation at 1 µM turned out to be 7.2% and the inhibition at 1 µM was 89.2%. Also, on CB1 [2] (setting [3]), the inhibition is 64.5%.

Regarding `CC12CCC(C1)C(C)(C)C2NC(=O)c1nn(-c2ccc(Cl)cc2Cl)c2c1C1CCC2C1` (stereo not drawn) [Example 241, N(3)-(1,3,3-Trimethylbicyclo[2.2.1]hept-2-yl)-1-(2,4-dichlorophenyl)-4,5,6,7-tetrahydro-1H-4,7-methano-indazole-3-carboxamide], the melting point lay in the range of 156 to 159 °C. At CB1 [1], the activation at 0.3 µM is 54.7% and the inhibition at 0.3 µM is 32.9%. Also, the inhibition on CB1 [2] (setting [4]) stood at 92.5%.

As for `O=C(NN(c1ccccc1)c1ccccc1)c1nn(-c2ccc(Cl)cc2)c2c1C1CC3CC(C1)CC2C3` [Example 137, N(7)-(N′,N′-Diphenylamino)-5-(4-chlorophenyl)-5,6-diazatetracyclo[7.3.1.1^3,11.0^4,8]tetradeca-4(8),6-diene-7-carboxamide], the melting point stood at 214 °C. On CB1 [1], the activation at 1 µM turned out to be 13% and the inhibition at 1 µM was 76%. Further, at CB1 [2] (setting [4]), the inhibition worked out at 76.7%.

For `CN(NC(=O)c1nn(-c2ccc(Cl)cc2)c2c1C1CC3CC(C1)CC2C3)C1CCCCC1` [Example 107, N(7)-(N-cyclohexyl-N-methylamino)-5-(4-chlorophenyl)-5,6-diazatetracyclo[7.3.1.1^3,11.0^4,8]tetradeca-4(8),6-diene-7-carboxamide], the melting point is 219 °C. For the same compound, at CB1 [1], the activation at 1 µM turned out to be 4% and the inhibition at 1 µM came out at 71.5%. Besides, the inhibition on CB1 [2] (setting [3]) was found to be 97.4%.

In turn, `O=C(NNc1ccccc1)c1nn(-c2ccc(Cl)cc2Cl)c2c1C1CCC2C1` (stereo not drawn) [Example 256, N(3)-Phenylamino-1-(2,4-dichlorophenyl)-4,5,6,7-tetrahydro-1H-4,7-methano-indazole-3-carboxamide] registered a melting point of 182 to 185 °C. Further, at CB1 [1], the activation at 1 µM was -21.5% and the inhibition at 1 µM is 69.7%. In addition, on CB1 [2] (setting [3]), the inhibition worked out at 63.3%.

With `O=C(NCc1ccccc1Br)c1nn(-c2ccc(Cl)cc2)c2c1C1CCC2C1` (stereo not drawn) [Example 224, N(3)-(2-Bromobenzyl)-1-(4-chlorophenyl)-4,5,6,7-tetrahydro-1H-4,7-methano-indazole-3-carboxamide], the melting point lay in the range of 141 to 142 °C. Further, on CB1 [1], the activation at 1 µM turned out to be 5% and the inhibition at 1 µM worked out at 78.1%. In addition, the inhibition on CB1 [2] (setting [4]) stood at 81.6%.

The compound `O=C(NNc1ccccc1)c1nn(-c2ccc(Cl)cc2Cl)c2c1C1CC3CC(C1)CC2C3` [Example 173, N(7)-Phenylamino-5-(2,4-dichlorophenyl)-5,6-diazatetracyclo[7.3.1.1^3,11.0^4,8]tetradeca-4(8),6-diene-7-carboxamide] registered a melting point of 162 to 163 °C. Besides, on CB1 [1], the activation at 1 µM turned out to be 1.3% and the inhibition at 1 µM was determined as 99.5%. The inhibition at CB1 [2] (setting [3]) amounted to 67.1%.

The compound `O=C(NNc1ncccc1Cl)c1nn(-c2ccc(Cl)cc2Cl)c2c1C1CCC2C1` (stereo not drawn) [Example 267, N(3)-[(3-chloropyridin-2-yl)amino]-1-(2,4-dichlorophenyl)-4,5,6,7-tetrahydro-1H-4,7-methano-indazole-3-carboxamide] yielded a melting point of 95 °C. On CB1 [1], the activation at 0.3 µM came to 12.3% and the inhibition at 0.3 µM turned out to be 43.6%. Also, the inhibition at CB1 [2] (setting [3]) worked out at 90%.

The compound `O=C(NCc1ccccc1Cl)c1nn(-c2ccc(Cl)cc2)c2c1C1CC3CC(C1)CC2C3` [Example 111, N(7)-(2-Chlorobenzyl)-5-(4-chlorophenyl)-5,6-diazatetracyclo[7.3.1.1^3,11.0^4,8]tetradeca-4(8),6-diene-7-carboxamide] displayed a melting point of 162 to 164 °C. At CB1 [1], the activation at 1 µM came out at 6.1% and the inhibition at 1 µM was found to be 101%. Further, the inhibition at CB1 [2] (setting [3]) is 111%.

Regarding `O=C(NN1CCCCC1)c1nn(-c2ccc(Cl)cc2Cl)c2c1C1CCC2c2ccccc21` (stereo not drawn) [Example 502, N(12)-Piperidino-10-(2,4-dichlorophenyl)-10,11-diazatetracyclo[6.5.2.0^2,7.0^9,13]pentadeca-2,4,6,9(13),11-pentaene-12-carboxamide], the melting point lay within 164 to 166 °C. On CB1 [1], the activation at 1 µM was determined as 1.8% and the inhibition at 1 µM turned out to be 91.1%. In addition, the inhibition at CB1 [2] (setting [3]) is 81.3%.

Turning to `C[C@@H](NC(=O)c1nn(-c2ccc(Cl)cc2Cl)c2c1C1CCC2C1)c1ccccc1` (stereo partly drawn) [Example 253, N(3)-[R-(1-phenylethyl)]-1-(2,4-dichlorophenyl)-4,5,6,7-tetrahydro-1H-4,7-methano-indazole-3-carboxamide], the melting point was in the range of 89 to 92 °C. In addition, on CB1 [1], the activation at 0.3 µM is -9.3% and the inhibition at 0.3 µM came to 79.9%. Also, the inhibition on CB1 [2] (setting [3]) amounted to 63%.

Take `O=C(NN1CCCCC1)c1nn(-c2ccc(F)cc2F)c2c1C1CC3CC(C1)CC2C3` [Example 143, N(7)-Piperidino-5-(2,4-difluorophenyl)-5,6-diazatetracyclo[7.3.1.1^3,11.0^4,8]tetradeca-4(8),6-diene-7-carboxamide]: the melting point was found to be 215 °C. For the same compound, at CB1 [1], the activation at 1 µM amounted to 43.1% and the inhibition at 1 µM worked out at 45%. The inhibition on CB1 [2] (setting [3]) was 102%.

Compound `O=C(NCc1ccccc1)c1nn(-c2ccc(Cl)cc2Cl)c2c1C1CCC2c2ccccc21` (stereo not drawn) [Example 501, N(12)-Benzyl-10-(2,4-dichlorophenyl)-10,11-diazatetracyclo[6.5.2.0^2,7.0^9,13]pentadeca-2,4,6,9(13),11-pentaene-12-carboxamide] had a melting point of 164 to 166 °C. Moreover, on CB1 [1], the activation at 1 µM was found to be 53.7% and the inhibition at 1 µM came out at 40.1%. In addition, at CB1 [2] (setting [3]), the inhibition is 82.5%.

On to `O=C(NC1CCCCC1)c1nn(-c2ccc(F)cc2F)c2c1C1CCC2C1` (stereo not drawn) [Example 290, N(3)-Cyclohexyl-1-(2,4-difluorophenyl)-4,5,6,7-tetrahydro-1H-4,7-methano-indazole-3-carboxamide], for which the melting point was 119 °C. Also, on CB1 [1], the activation at 1 µM was 3.8% and the inhibition at 1 µM is 35.3%. Also, the inhibition on CB1 [2] (setting [4]) was 80.3%.
